Results published in PubChem BioAssay (NCI).
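These data come from cells grown in 96-well plates and exposed to compound for 48 hours at five concentrations. GI50 = concentration required for 50% inhibition of growth. TGI denotes the concentration required for complete inhibition of growth.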

Key:
Assay in all cases: growth of human tumour cells (NCI), 48 h
LOX IMVI melanoma = tested on: LOX IMVI melanoma
CCRF-CEM leukemia = tested on: CCRF-CEM leukemia
OVCAR-3 ovarian = tested on: OVCAR-3 ovarian
SK-MEL-2 melanoma = tested on: SK-MEL-2 melanoma
HOP-92 NSCLC = tested on: HOP-92 NSCLC
OVCAR-8 ovarian = tested on: OVCAR-8 ovarian
HCT-15 colon = tested on: HCT-15 colon
HCC-2998 colon = tested on: HCC-2998 colon
CAKI-1 renal = tested on: CAKI-1 renal
KM12 colon = tested on: KM12 colon
TK-10 renal = tested on: TK-10 renal
HL-60(TB) leukemia = tested on: HL-60(TB) leukemia
DU-145 prostate = tested on: DU-145 prostate
HS 578T breast = tested on: HS 578T breast
A549 NSCLC = tested on: A549 NSCLC
OVCAR-4 ovarian = tested on: OVCAR-4 ovarian
MCF7 breast = tested on: MCF7 breast
PC-3 prostate = tested on: PC-3 prostate
HT29 colon = tested on: HT29 colon
SK-OV-3 ovarian = tested on: SK-OV-3 ovarian
SF-268 CNS = tested on: SF-268 CNS
COLO 205 colon = tested on: COLO 205 colon
MDA-MB-231 breast = tested on: MDA-MB-231 breast
SR leukemia = tested on: SR leukemia
NCI-H522 lung = tested on: NCI-H522 lung
SNB-75 CNS = tested on: SNB-75 CNS
SF-295 CNS = tested on: SF-295 CNS
ACHN renal = tested on: ACHN renal
NCI/ADR-RES ovarian = tested on: NCI/ADR-RES ovarian
HCT-116 colon = tested on: HCT-116 colon
IGROV1 ovarian = tested on: IGROV1 ovarian
NCI-H23 lung = tested on: NCI-H23 lung
MDA-MB-435 = tested on: MDA-MB-435
HOP-62 NSCLC = tested on: HOP-62 NSCLC
T-47D breast = tested on: T-47D breast
UACC-257 melanoma = tested on: UACC-257 melanoma
RPMI-8226 leukemia = tested on: RPMI-8226 leukemia
786-0 renal = tested on: 786-0 renal
OVCAR-5 ovarian = tested on: OVCAR-5 ovarian
A498 renal = tested on: A498 renal
M14 melanoma = tested on: M14 melanoma
SF-539 CNS = tested on: SF-539 CNS
SK-MEL-28 melanoma = tested on: SK-MEL-28 melanoma
BT-549 breast = tested on: BT-549 breast
SN12C renal = tested on: SN12C renal
MALME-3M melanoma = tested on: MALME-3M melanoma
SK-MEL-5 melanoma = tested on: SK-MEL-5 melanoma
U251 CNS = tested on: U251 CNS
NCI-H460 lung = tested on: NCI-H460 lung
UO-31 renal = tested on: UO-31 renal
EKVX NSCLC = tested on: EKVX NSCLC
SW-620 colon = tested on: SW-620 colon
MOLT-4 leukemia = tested on: MOLT-4 leukemia
UACC-62 melanoma = tested on: UACC-62 melanoma
RXF 393 renal = tested on: RXF 393 renal
SNB-19 CNS = tested on: SNB-19 CNS
K-562 leukemia = tested on: K-562 leukemia
NCI-H226 lung = tested on: NCI-H226 lung

COc1ccc(COc2cc3oc(=O)c4cc(C(C)O)ccc4c3cc2OC)cc1 (centres undefined)
GI50 (LOX IMVI melanoma): 18.7 µM | TGI (LOX IMVI melanoma): > 100 µM | GI50 (CCRF-CEM leukemia): > 21.6 µM | TGI (CCRF-CEM leukemia): > 100 µM | GI50 (OVCAR-3 ovarian): 17.1 µM | TGI (OVCAR-3 ovarian): 63.1 µM | GI50 (SK-MEL-2 melanoma): 7.69 µM | TGI (SK-MEL-2 melanoma): 30 µM | GI50 (HOP-92 NSCLC): 4.22 µM | TGI (HOP-92 NSCLC): 33.5 µM | GI50 (OVCAR-8 ovarian): 14.8 µM | TGI (OVCAR-8 ovarian): 52.2 µM | GI50 (HCT-15 colon): 12 µM | TGI (HCT-15 colon): > 100 µM | GI50 (HCC-2998 colon): > 31.4 µM | TGI (HCC-2998 colon): > 100 µM | GI50 (CAKI-1 renal): 15.3 µM | TGI (CAKI-1 renal): > 51.1 µM | GI50 (KM12 colon): 26.2 µM | TGI (KM12 colon): > 100 µM | GI50 (TK-10 renal): 17.4 µM | TGI (TK-10 renal): 62.6 µM | TGI (HL-60(TB) leukemia): > 100 µM | GI50 (DU-145 prostate): 45.5 µM | TGI (DU-145 prostate): > 100 µM | GI50 (HS 578T breast): 8.79 µM | TGI (HS 578T breast): > 67.4 µM | GI50 (A549 NSCLC): 14 µM | TGI (A549 NSCLC): > 100 µM | GI50 (OVCAR-4 ovarian): 10.1 µM | TGI (OVCAR-4 ovarian): 66.2 µM | GI50 (MCF7 breast): 9.49 µM | TGI (MCF7 breast): > 100 µM | GI50 (PC-3 prostate): 14.7 µM | TGI (PC-3 prostate): > 100 µM | TGI (HT29 colon): > 100 µM | GI50 (SK-OV-3 ovarian): 13.2 µM | TGI (SK-OV-3 ovarian): 45.8 µM | GI50 (SF-268 CNS): 9.89 µM | TGI (SF-268 CNS): 40.5 µM | GI50 (COLO 205 colon): > 22.7 µM | TGI (COLO 205 colon): > 100 µM | GI50 (MDA-MB-231 breast): 9.6 µM | TGI (MDA-MB-231 breast): 97.5 µM | GI50 (SR leukemia): 49.7 µM | TGI (SR leukemia): > 100 µM | GI50 (NCI-H522 lung): 10.1 µM | TGI (NCI-H522 lung): > 95.3 µM | GI50 (SNB-75 CNS): 2.08 µM | TGI (SNB-75 CNS): 11.1 µM | GI50 (SF-295 CNS): 11.6 µM | TGI (SF-295 CNS): 65.5 µM | GI50 (ACHN renal): 23.1 µM | TGI (ACHN renal): > 100 µM | GI50 (NCI/ADR-RES ovarian): 8.4 µM | TGI (NCI/ADR-RES ovarian): 44.4 µM | GI50 (HCT-116 colon): 13.3 µM | TGI (HCT-116 colon): > 100 µM | GI50 (IGROV1 ovarian): 11.5 µM | TGI (IGROV1 ovarian): > 83.1 µM | GI50 (NCI-H23 lung): 16.6 µM | TGI (NCI-H23 lung): > 86.6 µM | GI50 (MDA-MB-435): 4.33 µM | TGI (MDA-MB-435): > 22.9 µM | GI50 (HOP-62 NSCLC): 8.15 µM | TGI (HOP-62 NSCLC): 29.4 µM | GI50 (T-47D breast): 12.7 µM | TGI (T-47D breast): > 100 µM | GI50 (UACC-257 melanoma): 19.7 µM | TGI (UACC-257 melanoma): > 74.6 µM | GI50 (RPMI-8226 leukemia): > 28.8 µM | TGI (RPMI-8226 leukemia): > 100 µM | GI50 (786-0 renal): 13.1 µM | TGI (786-0 renal): 56.7 µM | GI50 (OVCAR-5 ovarian): 41.5 µM | TGI (OVCAR-5 ovarian): > 100 µM | GI50 (A498 renal): 19.2 µM | TGI (A498 renal): 82.2 µM | GI50 (M14 melanoma): > 22.5 µM | TGI (M14 melanoma): > 100 µM | GI50 (SF-539 CNS): 9.97 µM | TGI (SF-539 CNS): 33 µM | GI50 (SK-MEL-28 melanoma): 14.3 µM | TGI (SK-MEL-28 melanoma): > 91.7 µM | GI50 (BT-549 breast): 10.1 µM | TGI (BT-549 breast): 49.4 µM | GI50 (SN12C renal): 21.2 µM | TGI (SN12C renal): > 100 µM | GI50 (MALME-3M melanoma): 10.2 µM | TGI (MALME-3M melanoma): 40.2 µM | GI50 (SK-MEL-5 melanoma): 12.1 µM | TGI (SK-MEL-5 melanoma): > 40.7 µM | GI50 (U251 CNS): 10.5 µM | TGI (U251 CNS): > 71.6 µM | GI50 (NCI-H460 lung): 12.6 µM | TGI (NCI-H460 lung): > 100 µM | GI50 (UO-31 renal): 14.7 µM | TGI (UO-31 renal): > 100 µM | GI50 (EKVX NSCLC): 19.7 µM | TGI (EKVX NSCLC): > 100 µM | GI50 (SW-620 colon): > 22.4 µM | TGI (SW-620 colon): > 100 µM | GI50 (MOLT-4 leukemia): > 23 µM | TGI (MOLT-4 leukemia): > 100 µM | GI50 (UACC-62 melanoma): 8.47 µM | TGI (UACC-62 melanoma): 34 µM | GI50 (RXF 393 renal): 5.33 µM | TGI (RXF 393 renal): 15.6 µM | GI50 (SNB-19 CNS): 16 µM | TGI (SNB-19 CNS): 99.3 µM | GI50 (K-562 leukemia): 73.4 µM | TGI (K-562 leukemia): > 100 µM | GI50 (NCI-H226 lung): 12.3 µM | TGI (NCI-H226 lung): 49.8 µM
